Measurements published in US8648215B2, “Spiroenone and uses thereof” (Joben Bio-Medical Co., Ltd., priority 2012, dated 2014).

Test system: MCF-7 cells
Assay: MTT assay for antiproliferation, MCF-7 cells
Type: cell-based
Conditions: Homo sapiens, MCF7, 24 h, read-out: percentage of inhibition
Experimental: Cell Lines and Culture. MCF-7, T-47D, and H184B5F5/M10 cells were cultured with 5% CO2 atmosphere at 37° C.; MDA-MB-231 cells were cultured without CO2 at 37° C. The MCF-7 cells were cultured in MEM containing 10% heat-inactivated FBS, 100 units/mL penicillin, 100 μg/mL streptomycin, and 1 mM sodium pyruvate. The T-47D cells were maintained in RPMI-1640 medium containing 10% heat inactivated FBS, 100 units/mL penicillin, and 100 μg/mL streptomycin. […]
Assay for Antiproliferation. To determine the antiproliferative effect, MCF-7, T-47D, MDA-MB-231, or H184B5F5/M10 cells were assessed using the MTT assay as previously reported (Ho, C. Y.; Kim, C. F.; Leung, K. N.; Fung, K. P.; Tse, T. F.; Chan, H.; Lau, C. B. Differential anti-tumor activity of Coriolus versicolor (Yunzhi) extract through p53- and/or Bcl-2-dependent apoptotic pathway in human breast cancer cells. Cancer Biol. Ther. 2005, 4, e11-e17). […] The absorbance at 570 nm was measured, and the viability of cells was calculated using the following equation: relative cell number (%)=(average absorbance of treated wells)×100/(average absorbance of blank vehicle wells).

COC1=C(C)CC2(CC1)C(C)=CC(=O)C=C2C [compound 3, coixspiroenone]
inhibition at 50 µM: 19.2%
